In PMC3379994, “Comprehensive Analysis of Interactions between the Src-Associated Protein in Mitosis of 68 kDa and the Human Src-Homology 3 Proteome” (PLoS ONE, 2012) one finds Kd data, which are given here for two substances.

In experiment [1] the target is Hck (Homo sapiens, UniProt P08631). The settings on record: n = 3. Here is the method: (§1) To characterize the binding of SH3-phages to recombinant proteins, phage-ELISA analyses were performed. First, 1 µg of recombinant protein per well was immobilized on 96-well MaxiSorp plates (Nunc) over night. After washing thrice with PBS/T (PBS with 0.1 % Tween-20) and blocking with 5 % BSA in PBS, dilution-series of the respective phage-supernatants in 2×YTAmp,Kana were added and incubated for 1 h. After washing 10 times with PBS/T, an HRP-coupled anti-M13-antibody (GE Healthcare, 27-9421-01) diluted 1 : 5000 in blocking solution was added for 1 h. After washing again 10 times, TMB substrate solution was added, the reaction finally stopped by addition of 0.5 M H2SO4, and the result read out by measuring OD450.
(§2) First, we aimed at quantifying the binding affinities of the SH3-displaying phages to Sam68. To this end, we established a phage-ELISA procedure to separately analyse phage supernatants of the ten individual SH3-phages. In brief, His-Sam68 was coated to a 96-well plate, blocked and incubated with a dilution series of phage supernatants. Finally, bound phages were detected using an anti-M13-specific HRP-coupled antibody. As depicted in Fig. 1A, binding curves were obtained that are typical for a simple ligand-receptor relationship as is expected for an SH3-domain-PxxP-interaction showing no allosteric effects. Kd-values can not be deduced from these curves in the first instance, because the concentration of SH3 domains in the supernatants is unknown due to each phage particle presenting many copies on its surface. […]
(§3) Figure 1 Analysis of Sam68-binding SH3 domains in vitro. […] The amounts of bound phages were measured using a horseradish peroxidase-conjugated anti-M13-specific antibody with TMB-substrate detection at 450 nm (mean of three independent experiments, normalized to maximum OD-values). […] Bound proteins were eluted and Sam68 was detected by western blot analysis. […]

The target of experiment [2] is T1, IS2#3 (Homo sapiens, UniProt Q9NZM3).
T1 construct: gene ITSN2
T1 sequence (Q9NZM3 981-1039): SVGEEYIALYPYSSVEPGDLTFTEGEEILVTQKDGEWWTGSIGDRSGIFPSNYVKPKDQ
Particulars: n = 3. Here is the method:
as §1, §2, §3

Experiment [3] concerns the target Src (Homo sapiens, UniProt P12931). Particulars: n = 3. Here is the method: as §1, §2, §3
Experiment [4] has as its target Nck1#2 (Homo sapiens, UniProt P16333). The settings on record: n = 3. Here is the method: as §1, with “OD450. […]” for “OD450.”
First, we aimed at quantifying the binding affinities of the SH3-displaying phages to Sam68. […] Finally, bound phages were detected using an anti-M13-specific HRP-coupled antibody. […]
as §3

In experiment [5] the target is T2, β-Pix-SH3 (Homo sapiens, UniProt Q14155).
T2 construct: gene ARHGEF7; β-Pix SH3 domain
T2 sequence (Q14155 184-243): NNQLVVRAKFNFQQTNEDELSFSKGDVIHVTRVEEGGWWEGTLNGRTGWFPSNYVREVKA
Particulars: cited from earlier work. An excerpt: Remarkably, Kd values calculated for the Sam68-SH3-interactions (considering the aforementioned correction value) lie in the low nanomolar range (cf. Fig. 1B). This is unexpected for SH3 domains, whose affinities are considered to lie in the low micromolar range [2], [51]. However, critical examination of the literature challenges the generality of the latter proposition. […] This can have a significant influence on binding-strength, as illustrated for instance for the Abp1-SH3 domain, comprising a Kd-value of 100 µM to a 14-mer ligand-peptide, and 40 µM after elongation to a 17-mer peptide. Nevertheless, some values obtained for Sam68-SH3 interactions still are one order of magnitude lower than even the best reported in the literature. Likely, this is due to an artifical avidity effect resulting from the use of the SH3-phages. As the SH3 domains bind to more than one of the PxxP-motifs, it is conceivable that one phage-particle docks to two or more PxxP-motifs of an individual Sam68 molecule via multiple SH3 domains. Consequently, even after dissociation of one SH3-PxxP-pair, the phage would still be retained by the protein. Kinetically, this corresponds to a decrease in the off-rate and concomitantly to a decrease in the Kd value. The affinity gain of the interaction is not due to cooperativity, as is evident from the Hill-transformed ELISA data yielding Hill-coefficients α of 1.0. […]

Sequence of Hck (P08631 78-138): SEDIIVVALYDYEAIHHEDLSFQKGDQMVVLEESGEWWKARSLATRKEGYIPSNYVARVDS

As a reminder, the Kd is the concentration at which binding is half-saturated. Regarding “Src-associated in mitosis 68 kDa (KHDRBS1), full-length, N-terminally His-tagged recombinant [Sam68]”, the Kd was 0.031 µM in experiment [1], 0.059 µM in experiment [2], 0.006 µM in experiment [3] and 0.031 µM in experiment [4].
For the substance Pak2, in experiment [5], the Kd was 0.059 µM.
